Where two headings read alike, the source gives them in different places.
Columns and labels:
[1] = target: full-length SHP2-E76K oncogenic mutant (Homo sapiens (Human), UniProt Q06124, E76K); assay: DiFMUP fluorescence intensity phosphatase inhibition assay, SHP2-E76K; format: biochemical
Description: To test the synthesized compounds for their potential to inhibit SHP2 activity, a fluorescence intensity-based assay using 6,8-difluoro-4-methylumbelliferyl phosphate (DiFMUP) as the substrate was adapted for three recombinant SHP2 constructs: 1) the SHP2 catalytic domain (SHP2cat; residues 248-527), 2) the full-length SHP2-E76K oncogenic mutant, and 3) the full-length SHP2 wild-type (SHP2-WT). The recombinant SHP2 proteins were expressed and purified. A dually phosphorylated peptide derived from the insulin receptor substrate 1 (IRS-1) served as a surrogate binding protein and was used to activate SHP2-WT. […] Michaelis-Menten experiments to determine the DiFMUP Michaelis-Menten constant (Kmn) for each SHP2 construct were performed and yielded the following values: SHP2-WT, Km=60 μM; SHP2-E76K, Km=20 μM; SHP2cat, Km=20 μM. Relative maximum rates (Vmax) of the DiFMUP reactions were as follows: SHP2-WT, Vmax=871 AFU/min; SHP2-E76K, Vmax, =2730 AFU/min; SHP2cat, Vmax=2912 AFU/min. IC50 values for each compound were determined from initial rates in 10-point dose-response assays using DiFMUP at a concentration corresponding to its Km value for the respective SHP2 construct.
SHP2 inhibitors were tested at room temperature (RT) in a 384-well plate format standard phosphatase fluorescence intensity assay using DiFMUP (Invitrogen/Thermo Fisher Scientific, Carlsbad, CA) as a substrate and a total reaction volume of 25 μL. SHP2 inhibitors or vehicle (DMSO) were spotted in triplicate into a black Greiner FLUOTRAC™ 200 384-well microplate (#781076, Greiner) for a 10-point dose-response assay using an Echo®555 Liquid Handler (Labcyte, Inc., San Jose, CA). PTP working solutions were prepared at a 0.625 nM concentration (for a final concentration of 0.5 nM) in buffer containing 50 mM Bis-Tris pH 6.0, 50 mM NaCl, 5 mM DTT, and 0.01% Tween® 20. Prior to the assay, a dually phosphorylated insulin receptor substrate 1 (IRS-1) peptide [625 nM (500 nMfinal) (30)] was added to full-length WT SHP2 working solutions and incubated for 20 min. DiFMUP working solutions at 5× final concentration were prepared in 50 mM Bis-Tris pH 6.0, 50 mMNaCl, and 0.01% Tween 20. 20 μL of PTP working solution was dispensed into the microplate and incubated with inhibitor for 20 min at RT. […] The reaction was initiated by addition of 5 μL DiFMUP working solutions. Fluorescence intensity was measured in kinetic mode (every minute for 7 or 10 min) using a Tecan Spark® Multimode Microplate Reader (Tecan, Groedig, Austria) with an excitation wavelength of 360 nm and an emission wavelength of 460 nm. The initial rates were determined from the linear progression curves of the PTP reaction. The nonenzymatic hydrolysis of the substrate was corrected by using a control without addition of enzyme. IC50 values were calculated from the corrected initial rates by nonlinear regression using the program GraphPad Prism (GraphPad Software, Inc., San Diego, CA) Version 8. Dose-response inhibition assays of SHP2cat using the substrate OMFP were performed similarly as described above for DiFMUP. OMFP was used at a concentration corresponding to its Km value for SHP2cat (50 μM final). Fluorescence intensity was measured in kinetic mode (every minute for 10 min) using a Tecan Spark Multimode Microplate Reader with an excitation wavelength of 485 nm and an emission wavelength of 535 nm. Initial rates were determined and IC50 vales calculated as described above.

[2] = system: KYSE-520 esophageal cancer cells; assay: Cell viability assay (CellTiter-Glo), KYSE-520; format: cell-based; conditions: KYSE-520 cells, various concentrations, 3 d
Description: Inhibition of SHP2 has been reported to inhibit the growth of cancer cells including Kasumi-1 acute myeloid leukemia (AML) and KYSE-520 esophageal cancer cells. […] Cell viability is shown as a percentage of the vehicle (DMSO) control and represents the mean±SD. B) #02 dose-response curves in cell viability assays using Kasumi-1, KYSE-520, MOLM-13, and […] cells after 3 d in culture. The percentages compared to DMSO vehicle control were curve fitted using nonlinear regression (log[inhibitor] vs. normalized response, variable slope) and represent the mean±SD. C) Cell viability of […] and MDA-MB-468 triple-negative breast cancer (TNBC) cells in the presence of various concentrations of #02 or the SHP2 allosteric inhibitor SHP099 after 5 d in culture. Cell viability is shown as a percentage of DMSO vehicle control, representing mean±SD, and curve fitted as in B). D) Colony formation assay (11 d) of […] and MDA-MB-468 TNBC cells in the presence of various concentrations of #02 or the SHP2 allosteric inhibitor SHP099. E) Phospho-ERK1/2 (p-ERK1/2) immunoblot analysis from total cell lysates of MOLM-13 AML cells treated with #02 at the indicated concentrations, or with SHP2 allosteric inhibitor RMC-4550 (RMC, 1 μM) for 3 h or 24 h. The quantitation of p-ERK1/2 levels is shown as the percentage of the DMSO (vehicle) control and represents data from three independent experiments (mean±SD). F) Viability of AML patient-derived cells in the presence of 10 μM #02 or 10 μM SHP2 allosteric inhibitor RMC-4550 after 2 d, 4 d, or 6 d in culture. Cell viability is shown as a percentage of the DMSO vehicle control and represents the mean±SD (*p<0.05; **p<0.01; ****p<0.0001; unpaired test with Welch's correction) G) Viability of MOLM-13 cells and MOLM-13-Cas9-mCherry cells with SHP2 knockout (KO) in the presence of #01, #02, and allosteric inhibitor SHP099 at various concentrations (10-point dose-response). The percentages compared to the DMSO vehicle control were curve fitted using nonlinear regression (log[inhibitor] vs. normalized response, variable slope) and represent the mean±SD. SHP2 protein levels in regular MOLM-13 cells (WT), MOLM-13-Cas9-mCherry cells (Cas9), and MOLM-13-Cas9-mCherry cells with SHP2 KO (SHP2 KO) were evaluated by immunoblot analysis using SHP2 antibodies.
Viability of AML, esophageal carcinoma, and TF-1 cells was assessed using the ATP-depletion assay CellTiter-Glo® (Promega). Cells were harvested at 1×10^6/mL to 2×10^6 cells/mL with cell numbers determined by trypan blue using the Countess Cell counter (Thermo Scientific) and resuspended in culture media. […] Luminescence was read on a Tecan Spark® Multimode Microplate Reader and data analyzed using Graph Pad Prism software.

[3] = DiFMUP at Km (20 μM), 10-point dose-response, read-out: SHP2-E76K IC50

full-length SHP2-E76K oncogenic mutant, sequence (Q06124 whole entry E76K, the tested form may be a part): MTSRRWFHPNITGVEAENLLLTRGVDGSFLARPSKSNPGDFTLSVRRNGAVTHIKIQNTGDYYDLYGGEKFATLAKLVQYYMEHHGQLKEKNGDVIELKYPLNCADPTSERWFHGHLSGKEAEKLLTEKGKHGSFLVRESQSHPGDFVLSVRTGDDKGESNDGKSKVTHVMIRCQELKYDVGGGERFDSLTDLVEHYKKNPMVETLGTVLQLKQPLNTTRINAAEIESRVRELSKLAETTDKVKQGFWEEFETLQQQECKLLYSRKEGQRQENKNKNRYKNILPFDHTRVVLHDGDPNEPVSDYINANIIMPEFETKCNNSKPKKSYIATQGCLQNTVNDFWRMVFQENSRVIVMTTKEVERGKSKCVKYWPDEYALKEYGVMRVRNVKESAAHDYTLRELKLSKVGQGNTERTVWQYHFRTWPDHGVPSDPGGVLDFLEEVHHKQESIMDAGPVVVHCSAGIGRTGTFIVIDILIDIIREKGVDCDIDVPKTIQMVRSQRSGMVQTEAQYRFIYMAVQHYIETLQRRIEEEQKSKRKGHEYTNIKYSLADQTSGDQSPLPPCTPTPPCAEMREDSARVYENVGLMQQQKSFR

With `Nc1ccc(NC(=O)c2cc(-c3ccc(/C=C4\Sc5ccccc5C4=O)o3)ccc2O)cc1` [#01, (Z)—N-(4-Aminophenyl)-2-hydroxy-5-(5-((3-oxobenzo[b]thiophen-2(3H)-ylidene)methyl)furan-2-yl)benzamide] the IC50 [1, 3] was ≤ 1000 nM and the “effect on cancer cell growth” value [2] was “dose-dependently inhibited cancer cell growth”.

For `O=C(Nc1ccccc1)c1cc(-c2ccc(/C=C3\Sc4ccccc4C3=O)o2)ccc1O` [#02, (Z)-2-hydroxy-5-(5-((3-oxobenzo[b]thiophen-2(3H)-ylidene)methyl)furan-2-yl)-N-phenylbenzamide], the IC50 [1, 3] was 1000 to 20000 nM, the IC50 ([1]; IC50 against SHP2-E76K, in vitro phosphatase inhibition assay, screening hit, heading: IC50 against SHP2-E76K) was 1800 nM and the “effect on cancer cell growth” value [2] was “dose-dependently inhibited cancer cell growth”.

`N#Cc1cc(-c2ccc(/C=C3\Sc4ccccc4C3=O)o2)ccc1O` [#05, (Z)-2-Hydroxy-5-(5-((3-oxobenzo[b]thiophen-2(3H)-ylidene)methyl)furan-2-yl)benzonitrile] was tested, and the IC50 [1, 3] was 1000 to 20000 nM and the “effect on cancer cell growth” value [2] was “dose-dependently inhibited cancer cell growth”.
